Measurements: US20120225135A1 (priority 2010, published 2012)

Legend:
[1] = tested on: Pichia (Hansenula) anomala (20 percent sporulated); test: Microbiological effectiveness at cold temperatures; assay type: cell-based
[2] = tested on: Rotavirus SA-11, ATCC VR-899; assay type: cell-based; settings: pH 9
Giardia muris cysts = settings: in vivo
[3] = Processing of potatoes, micro-biological control of process water
E. coli [4] = tested on: E. coli
[5] = tested on: Total Plate Count (microbiological surface contamination)
[6] = tested on: Legionella pneumophila, ATCC 33153; assay type: cell-based; settings: pH 5
[7] = tested on: Poliovirus type 1, ATCC VR-59; assay type: cell-based; settings: pH 9
[8] = ORP stability test (ORP meter); assay type: physicochemical
Text: Two further samples from the original batch were taken one was packed in an amber coloured PET bottle and the second in a HDPE plastic pouch.
Both were placed in an area out of direct sunlight and further the second sample was protected from light by a cardboard box.
Measurements of their voltage were taken using an ORP meter in accordance with the testing procedure described in the ORP related articles above.
Samples were kept in an office environment in Richmond on an exposed bench.
Sampling Equipment EUTECH INSTRUMENTS Waterproof ORPTestr 10

[9] = tested on: Klebsiella terrigena, ATCC 33257; assay type: cell-based; settings: pH 5
Streptococcus = test: Disinfection of effluents, streptococcus; assay type: cell-based; settings: trickling filters effluents
Lactobacillus frigidus = test: Microbiological effectiveness at cold temperatures; assay type: cell-based
Enterobacter Cloacae = test: Microbiological effectiveness at cold temperatures; assay type: cell-based
biofilm = settings: cited from earlier work
[10] = tested on: Salmonella choleraesuis, ATCC 10708; assay type: cell-based; settings: pH 5
E. coli [11] = test: Sanitation of fishing holds, E. coli; settings: cleaned surface sprayed with 10 ppm ClO2 solution
Text: Gross filth removed and washed in detergent
Cleaned surface sprayed with 10 ppm ClO2 solution

Fecal Coli = test: Disinfection of effluents, fecal coli; assay type: cell-based; settings: for Fecal Coli: ClO2 dose 9.86 mg/L, 30 minutes; for Fecal Coli EC Media per 100 mL: trickling filters effluents
[12] = Residual ClO2 after contact with effluents or tap water (amperometric titration); assay type: physicochemical; settings: for Residual ClO2: trickling filters effluents
[13] = tested on: Saccharomyces diastaticus (70 percent sporulated); test: Microbiological effectiveness at cold temperatures; assay type: cell-based
[14] = tested on: Escherichia coli, ATCC 11229; assay type: cell-based; settings: pH 5
[15] = ClO2 dose 2.7 mg/L, contact time 5 min
[16] = ClO2 dose 2.7 mg/L, contact time 20 min
[17] = ClO2 dose 10.8 mg/L, contact time 5 min
[18] = ClO2 dose 10.8 mg/L, contact time 20 min

With `[O][Cl+][O-]` [Chlorine Dioxide, chlorine dioxide] the “Deactivation (%)” value [1] was 99.999%, the reduction in titer [2] was > 4 log 10 and the Total microbio counts (Total microbio counts) was 1-5 organisms/ml. For the same compound, the “reduction of infectivity for mice” value (Giardia muris cysts) was > 3 log 10, the “micro-biological control compared with chlorine” value [3] was “better micro-biological control agent than chlorine at 5-10 ppm” and the “E. coli on cut lettuce” value (E. coli [4]) was “always zero”. For the same compound, the “TPC at day zero” value [5] was “less than 7×10^4”, the reduction in titer [6] was > 6 log 10 and the reduction in titer [7] was > 4 log 10. For the same compound, the “ORP mV” value ([8]; Card Board Wine Cask, April 20 (2005/2006)) was 991 mV, the “ORP mV” value ([8]; Card Board Wine Cask, August 3 (2005/2006)) was 987 mV and the “ORP mV” value ([8]; Card Board Wine Cask, August 24 (2005/2006)) was 1143 mV. The “ORP mV” value ([8]; Card Board Wine Cask, January 18 (2005/2006)) was 1021 mV, the “ORP mV” value ([8]; Card Board Wine Cask, July 7 (2005/2006, first entry)) was 970 mV and the “ORP mV” value ([8]; Card Board Wine Cask, July 12 (2005/2006, last entry)) was 975 mV. The “ORP mV” value ([8]; Card Board Wine Cask, July 18 (2005/2006)) was 980 mV, the “ORP mV” value ([8]; Card Board Wine Cask, June 2 (2005/2006)) was 970 mV and the “ORP mV” value ([8]; Card Board Wine Cask, March 14 (2005/2006)) was 1008 mV. The “ORP mV” value ([8]; Card Board Wine Cask, May 11 (2005/2006)) was 970 mV, the “ORP mV” value ([8]; Card Board Wine Cask, November 29 (2005/2006)) was 977 mV and the “ORP mV” value ([8]; Card Board Wine Cask, October 21 (2005/2006)) was 1036 mV. The “ORP mV” value ([8]; Card Board Wine Cask, September 5 (2005/2006)) was 1135 mV, the “ORP mV” value ([8]; Card Board Wine Cask, September 20 (2005/2006)) was 1130 mV and the “ORP mV” value ([8]; Sample PET bottle, April 20 2005) was 975 mV. The “ORP mV” value ([8]; Sample PET bottle, Aug 8 2005) was 926 mV, the “ORP mV” value ([8]; Sample PET bottle, Aug 24 2005) was 960 mV and the “ORP mV” value ([8]; Sample PET bottle, July 10 2005) was 960 mV. For the same compound, the “ORP mV” value ([8]; Sample PET bottle, July 20 2005) was 954 mV, the “ORP mV” value ([8]; Sample PET bottle, June 12 2005) was 970 mV and the “ORP mV” value ([8]; Sample PET bottle, June 21 2005) was 965 mV. The “ORP mV” value ([8]; Sample PET bottle, May 10 2005) was 980 mV, the “ORP mV” value ([8]; Sample PET bottle, May 20 2005) was 971 mV and the “ORP mV” value ([8]; Sample PET bottle, Oct 12 2005) was 948 mV. For the same compound, the “ORP mV” value ([8]; Sample PET bottle, Oct 28 2005) was 941 mV, the “ORP mV” value ([8]; Sample PET bottle, Sept 5 2005) was 955 mV and the “ORP mV” value ([8]; Sample PET bottle, Sept 20 2005) was 954 mV. The reduction in titer [9] was > 6 log 10, the “Streptococcus per 100 mL” value (Streptococcus; [15]) was 8.4 × 10^7 per 100 mL and the “Streptococcus per 100 mL” value (Streptococcus; [16]) was 2.4 × 10^7 per 100 mL. The “Streptococcus per 100 mL” value (Streptococcus; [17]) was 2.7 × 10^5 per 100 mL, the “Streptococcus per 100 mL” value (Streptococcus; [18]) was 8.0 × 10^3 per 100 mL and the “Deactivation (%)” value (Lactobacillus frigidus) was 99.999%. The “Deactivation (%)” value (Enterobacter Cloacae) was 99.999%, the detachment of biofilms (biofilm) was “very effective” and the reduction in titer [10] was > 6 log 10. For the same compound, the E. coli (E. coli [11]) was “below level of detection”, the “Fecal Coli” value (Fecal Coli; effluents, pH initial 4.6, final 4.4) was 2 MPN per 100 ml and the “Fecal Coli” value (Fecal Coli; effluents, pH initial 5.5, final 5.6) was 2 MPN per 100 ml. For the same compound, the “Fecal Coli” value (Fecal Coli; effluents, pH initial 6.5, final 6.7) was 0 MPN per 100 ml, the “Fecal Coli” value (Fecal Coli; effluents, pH initial 7.5, final 7.6) was 1.8 MPN per 100 ml and the “Fecal Coli” value (Fecal Coli; effluents, pH initial 8.2, final 8.1) was 23 MPN per 100 ml. The “Fecal Coli” value (Fecal Coli; effluents, pH initial 9.1, final 9.2) was 2.7 × 10^2 MPN per 100 ml, the “Fecal Coli” value (Fecal Coli; effluents, pH initial 10.0, final 10.0) was 1.3 × 10^4 MPN per 100 ml and the “kill of fecal coli” value (Fecal Coli; effluents, dose 2.7 mg/L ClO2, 30 min. contact time) was 98.9%. The “fecal coli organisms survived” value (Fecal Coli; effluents, dose 10.8 mg/L ClO2, 30 min. contact time) was “two”, the “Fecal Coli EC Media per 100 mL” value (Fecal Coli; [15]) was 2.4 × 10^7 per 100 mL and the “Fecal Coli EC Media per 100 mL” value (Fecal Coli; [16]) was 1.3 × 10^7 per 100 mL. The “Fecal Coli EC Media per 100 mL” value (Fecal Coli; ClO2 dose 2.7 mg/L, contact time 35 min) was 3.5 × 10^5 per 100 mL, the “Fecal Coli EC Media per 100 mL” value (Fecal Coli; ClO2 dose 5.0 mg/L, contact time 15 min) was 2.4 × 10^6 per 100 mL and the “Fecal Coli EC Media per 100 mL” value (Fecal Coli; [17]) was 9.2 × 10^2 per 100 mL. For the same compound, the “Fecal Coli EC Media per 100 mL” value (Fecal Coli; [18]) was 14 per 100 mL, the “Fecal Coli EC Media per 100 mL” value (Fecal Coli; ClO2 dose 10.8 mg/L, contact time 35 min) was 2 per 100 mL and the ClO2 residual ([12]; effluent, ClO2 dose 5.2 mg/L, contact time 3½ hrs) was 0.4 mg/L as ClO2. It also gave a ClO2 residual ([12]; effluent, ClO2 dose 5.2 mg/L, contact time 10 min) of 1.9 mg/L as ClO2, a ClO2 residual ([12]; effluent, ClO2 dose 5.2 mg/L, contact time 30 min) of 1.4 mg/L as ClO2 and a ClO2 residual ([12]; effluent, ClO2 dose 5.2 mg/L, contact time 1 hr) of 1.0 mg/L as ClO2. For the same compound, the ClO2 residual ([12]; effluent, ClO2 dose 5.2 mg/L, contact time 2 hrs) was 0.8 mg/L as ClO2, the ClO2 residual ([12]; effluent, ClO2 dose 5.2 mg/L, contact time 24 hrs) was 0 mg/L as ClO2 and the ClO2 residual ([12]; effluents, ClO2 dose 7.84 mg/L, contact time 10 min) was 3.0 mg/L as ClO2. For the same compound, the ClO2 residual ([12]; effluents, ClO2 dose 7.84 mg/L, contact time 30 min) was 2.6 mg/L as ClO2, the ClO2 residual ([12]; effluents, ClO2 dose 7.84 mg/L, contact time 60 min) was 2.1 mg/L as ClO2 and the ClO2 residual ([12]; effluents, ClO2 dose 7.84 mg/L, contact time 1.5 hr) was 1.9 mg/L as ClO2. It also gave a ClO2 residual ([12]; effluents, ClO2 dose 7.84 mg/L, contact time 2.5 hr) of 1.5 mg/L as ClO2, a ClO2 residual ([12]; effluents, ClO2 dose 7.84 mg/L, contact time 3.5 hr) of 1.0 mg/L as ClO2 and a ClO2 residual ([12]; effluents, dose 19.2 mg/L, 20 minutes, pH initial 4, final 3.4) of 4.66 mg/L as ClO2. For the same compound, the ClO2 residual ([12]; effluents, dose 19.2 mg/L, 20 minutes, pH initial 5, final 4.6) was 4.37 mg/L as ClO2, the ClO2 residual ([12]; effluents, dose 19.2 mg/L, 20 minutes, pH initial 6, final 6.45) was 4.95 mg/L as ClO2 and the ClO2 residual ([12]; effluents, dose 19.2 mg/L, 20 minutes, pH initial 7.5, final 7.3) was 3.84 mg/L as ClO2. It also gave a ClO2 residual ([12]; effluents, dose 19.2 mg/L, 20 minutes, pH initial 9, final 8.8) of 1.27 mg/L as ClO2, a ClO2 residual ([12]; effluents, dose 19.2 mg/L, 20 minutes, pH initial 10, final 9.9) of 0.11 mg/L as ClO2 and a ClO2 residual ([12]; effluents, dose 37.5 mg/L, 20 minutes, pH initial 4.0, final 3.5) of 25.84 mg/L as ClO2. It also gave a ClO2 residual ([12]; effluents, dose 37.5 mg/L, 20 minutes, pH initial 5.0, final 4.95) of 26.88 mg/L as ClO2, a ClO2 residual ([12]; effluents, dose 37.5 mg/L, 20 minutes, pH initial 6.0, final 6.05) of 24.20 mg/L as ClO2 and a ClO2 residual ([12]; effluents, dose 37.5 mg/L, 20 minutes, pH initial 7.5, final 7.3) of 25.27 mg/L as ClO2. It also gave a ClO2 residual ([12]; effluents, dose 37.5 mg/L, 20 minutes, pH initial 9, final 8.8) of 15.13 mg/L as ClO2, a ClO2 residual ([12]; effluents, dose 37.5 mg/L, 20 minutes, pH initial 10, final 9.8) of 5.23 mg/L as ClO2 and a ClO2 residual ([12]; tap water with ammonium ion, nitrites, nitrates, neutral pH, dose 19.2 mg/L, 10 min) of 0 mg/L as ClO2. It also gave a ClO2 residual ([12]; tap water with ammonium ion, nitrites, nitrates, neutral pH, dose 19.2 mg/L, 30 min) of 0 mg/L as ClO2, a ClO2 residual ([12]; tap water with ammonium ion, nitrites, nitrates, neutral pH, dose 19.2 mg/L, 1 hr) of 0.07 mg/L as ClO2 and a ClO2 residual ([12]; tap water with ammonium ion, nitrites, nitrates, neutral pH, dose 19.2 mg/L, 3 hrs) of 0.03 mg/L as ClO2. The ClO2 residual ([12]; tap water with ammonium ion, nitrites, nitrates, neutral pH, dose 19.2 mg/L, 24 hrs) was 0.08 mg/L as ClO2, the “Residual ClO2” value ([12]; dose 2.7 mg/L, contact time 5 min) was 0 mg/L as ClO2 and the “Residual ClO2” value ([12]; dose 2.7 mg/L, contact time 20 min) was 0 mg/L as ClO2. The “Residual ClO2” value ([12]; dose 2.7 mg/L, contact time 35 min) was 0 mg/L as ClO2, the “Residual ClO2” value ([12]; dose 7.8 mg/L, contact time 5 min) was 1.28 mg/L as ClO2 and the “Residual ClO2” value ([12]; dose 7.8 mg/L, contact time 20 min) was 1.03 mg/L as ClO2. The “Residual ClO2” value ([12]; dose 7.8 mg/L, contact time 35 min) was 0.84 mg/L as ClO2, the “Residual ClO2” value ([12]; dose 10.8 mg/L, contact time 5 min) was 3.10 mg/L as ClO2 and the “Residual ClO2” value ([12]; dose 10.8 mg/L, contact time 20 min) was 2.17 mg/L as ClO2. For the same compound, the “Residual ClO2” value ([12]; dose 10.8 mg/L, contact time 35 min) was 2.07 mg/L as ClO2, the “Deactivation (%)” value [13] was 99.999% and the reduction in titer [14] was > 6 log 10.
